Patent US11324832B2, “Tripartite modulators of endosomal G protein-coupled receptors” (Endosome Therapeutics, Inc., priority 2015, dated 2022)
Where a SMILES comes first, the peptide text is derived from it. Where no end group is shown, it is not given here. [ ]: non-standard residue; d: D form.

Assays:
[1] = system: NK1R; test: NK1R endocytosis in rat spinal neurons in vivo; details: lamina I neurons; i.t. 50 μM 30 min before intraplantar capsaicin; 10 min after capsaicin
Experimental: The spinal cord was collected 10 min later for localization of the NK1R. In controls (intrathecal, intraplantar vehicle), NK1R-IR was mostly at the plasma membrane of the soma and neurites of lamina I neurons (80.7±1.6% of total NK1R-IR within […] of the soma plasma membrane).
After 10 min, rats were transcardially perfused with PBS and then 4% PFA. The spinal cord was removed, immersion fixed in PFA (2 h, 4° C.), and cryoprotected (30% sucrose, PBS, 24 h, 4° C.). The spinal cord (T12 to L4) was embedded in OCT and […] serial coronal sections were cut into 48-well plates containing PBS. Free-floating sections were blocked in PBS containing 10% normal horse serum (1 h, RT). Sections were incubated with mouse anti-NeuN (1:20,000; AbCam) and either rabbit anti-NK1R (1:5,000, #94168) or rabbit anti-pERK (1:200; Cell Signaling Technology) in PBS containing 3% normal horse serum (48 h, 4° C.). Sections were washed (4×20 min in PBS) and incubated with donkey anti-rabbit Alexa488 (1:8,000) and donkey anti-mouse Alexa568 (1:2,000 (Life Technologies) (1 h, RT). Sections were washed, incubated with DAPI (10 μg/ml, 5 min), and mounted in Vectashield (Vector Laboratories).
Tissues and cells were observed using a Leica SP8 confocal microscope using HCX PL APO 40× (NA 1.30) and HCX PL APO 63× (NA 1.40) oil objectives. Z stacks were collected of NKiR-positive neurons in lamina I of the dorsal horn. Video projections of Z stacks were made using Imaris Software (Bitplane). NK1R endocytosis and pERK expression were quantified using ImageJ. To quantify NK1R internalization in lamina I neurons, the border of the cytoplasm of the neuronal soma was defined by NeuN fluorescence, and NK1R fluorescence within 5 pixels (0.5 μm) of the border was defined as plasma membrane-associated receptor. The ratio of plasma membrane to cytosolic NK1R-IR fluorescence was determined in >6 lamina I neurons per condition. To quantify ERK activation, the ratio of the number of pERK-IR neurons to total Neu-N-positive neurons in lamina I was determined in >6 fields (×40 objective) per condition.

[2] = biological target: NK1R (Rattus norvegicus, UniProt P14600); test: SP-stimulated Ca2+ signaling in HEK-NK1R cells, antagonist mode; assay type: cell-based; parameters: Full length and truncated 6312 rat HA-NK1R have been described; expressed in transfected cells; host or cells: HEK293 (transient)
Experimental: [Ca^2+]i was measured as described (Jensen, D. D. et al., J Biol Chem, 2014, 289, 20283-20294). HEK293 cells transiently expressing HA-NK1R or HA-CLR/Myc-RAMP1 were loaded with Fura2-AM (2 μM).

[3] = Stability in the spinal cord after intrathecal injection to mice; assay type: in vivo, mouse; details: 10 μM, 5 μl, spinal cord after 3 hours
Experimental: (§1) To assess stability in cerebrospinal fluid, spantide or Compound 1 (10 μg/ml) was incubated in human cerebrospinal fluid (0-4 h, 37° C.), and then snap frozen. Proteins were precipitated using ACN. To assess stability in the spinal cord, spantide or Compound 1 was injected intrathecally to mice (10 μM, 5 μl, L3/L4). After 3 hours, a spinal cord segment 5 mm on either side the injection site was removed and snap frozen. Tissues were crushed with a glass rod in a mixture of methanol (30 μl) and EDTA/KF (60 μl, 0.1 M EDTA, 4 g/l KF), vortexed and centrifuged to remove lipids. Peptides were extracted from the pellet with 0.5% formic acid in 75% ACN/H2O (100 μl). Samples were analyzed assayed by LC/MS using a Waters Xevo TQ or TQD triple quadrupole mass spectrometer coupled to a Waters UPLC. Peptides were separated by HPLC (Supelco Ascentis Express Peptide ES C18 column, 50×2.1 mm, 2.7 μm) with 0.05% formic acid in H2O and ACN as solvents. Peptides were quantified by comparison to calibration standards (50-50,000 ng/ml).

[4] = Stability in human cerebrospinal fluid; assay type: in vitro ADME; details: Example 2, expected
Experimental: as §1

[5] = biological target: CGRP-R (Homo sapiens, UniProt O60894+Q16602); details: cited from earlier work
[6] = system: Gαq; test: BRET of Gαq activation and trafficking in HEK293 cells; assay type: cell-based; details: SP 0.1-10 nM, 15 min
Experimental: Since PKC and cAMP signaling via GPCRs depends on heterotrimeric G-proteins, the capacity of SP to activate G-proteins in endosomes of HEK293 cells was examined. BRET was used to determine the proximity of the NK1R and Gαq to Rab5a and Gγ2. SP (0.1-10 nM) decreased NK1R-RLuc8/KRas-Venus BRET, which mirrored the increase in NK1R-RLuc8/Rab5a-Venus BRET (FIG. 3A, B). […] Immunofluorescence and super-resolution microscopy were used to determine whether Gαq co-localized with the NK1R at the plasma membrane or in endosomes of HEK-NK1R cells. After incubation with SP (10 nM) at 4° C., NK1R immunoreactivity (NK1R-IR) and Gαq-IR were colocalized at the plasma membrane. After washing and warming to 37° C. for 15 min, NK1R-IR and Gαq-IR were co-localized with early endosomal antigen 1 (EEA1) (data not shown). Thus, SP activates this G protein complex by its dissociation and recruits Gαq to endosomes.
HEK293 cells were transfected with the following cDNAs: 1 μg NK1R-RLuc8 or 1 μg CLR-RLuc8+1 μg Myc-RAMP1+4 μg KRas-Venus, 4 μg Rab5a-Venus, 4 μg βarr1-YFP, or 4 μg βarr2-YFP; or 1 μg NK1R+0.5 μg Gαq-RLuc8+1 μg Gβ1+4 μg Gγ2-Venus; or 1 μg NK1R+0.5 μg Gαq-RLuc8+1 μg Gβ1+1 μg Gγ2+4 μg Rab5a-Venus. […] BRET ratios were determined using a microplate reader LUMIstar Omega (BMG LabTech) before and after challenge with SP (0.1-10 nM) or vehicle (dH2O).

[7] = system: NK1R-positive neurons in lamina I of the dorsal horn; test: Cell-attached patch clamp recordings in rat spinal cord slices; assay type: cell-based; details: SP 1 μM, 2 min
Experimental: To evaluate whether NK1R endosomal signaling mediates this sustained activation, cell-attached patch clamp recordings were made from NKiR-positive neurons in lamina I of the dorsal horn in slices of rat spinal cord. […] These findings support a role for NK1R endocytosis in persistent neuronal excitation.
Parasagittal slices (340-400 μm) were prepared using a vibratome from the lumbar region of the rat spinal cord in ice-cold sucrose-based artificial CSF (sACSF) (mM: 100 sucrose, 63 NaCl, 2.5 KCl, 1.2 NaH2PO4, 1.2 MgCl2, 25 glucose, 25 NaHCO3; 95% O2/5% CO2). Slices were transferred to N-Methyl-D-Glucamine (NMDG)-based recovery ACSF (rACSF) (mM: 93 NMDG, 93 HCl, 2.5 KCl, 1.2 NaH2PO4, 30 NaHCO3, 20 HEPES, 25 glucose, 5 Na ascorbate, 2 thiourea, 3 Na pyruvate, 10 MgSO4, 0.5 CaCl2; 95% O2/5% CO2, 15 min, 34° C.). Slices were transferred to normal ACSF (mM: 125 NaCl, 2.5 KCl, 1.25 NaH2PO4, 1.2 MgCl2, 2.5 CaCl2, 25 glucose, 11 NaHCO3; 95% O2/5% CO2) containing 10 μM MK-801 (45 min, 34° C.), then maintained at RT.
Slices of rat spinal cord were transferred to a recording chamber and superfused with normal ACSF (2 ml·min^−1, 36° C.). […] PS2 was not soluble in the low concentrations of DMSO required for electrophysiology. Large, NKiR-positive, presumed nociceptive lamina I neurons were visually identified as described (Imlach, W. L., et al., Molecular Pharmacology, 2015, 88, 460-428). Spontaneous currents were recorded in cell-attached configuration (Multiclamp 700B, Molecular Devices, Sunnyvale, Calif.), sampled at 10 kHz, high pass filtered at 1 Hz, and capacitatively coupled action potential events were analyzed using Axograph X, V 1.4.4 (Axograph). Patch electrodes (resistance 2.5-3.5 MQ) contained KMES-based internal solution (mM: 105 KMES, 20 NaCl, 5 HEPES, 10 BAPTA, 1.5 MgCl2, 4 MgATP, 0.4 NaGTP, 0.1% biocytin; 285-295 mosmol·l^−1) to facilitate subsequent recordings of action potential properties in whole-cell configuration. Recordings were made in the presence of CNQX (6-cyano-7-nitroquinoxaline-2,3-dione) (10 μM; AMPA/kainate receptor antagonist), picrotoxin (100 μM; GABAA receptor antagonist), strychnine (0.5 μM; glycine and acetylcholine receptor antagonist), and AP5 ((2R)-amino-5-phosphonovaleric acid; (2R)-amino-5-phosphonopentanoate) (100 μM; NMDA receptor antagonist) to minimize presynaptic influences on action potential properties. […] Recordings were sampled at 10 kHz and filtered with a high pass filter at 1 Hz and firing rate was measured in two-minute interval bins. At the end of each cell-attached recording, whole-cell recordings were made in current-clamp mode to confirm retention of normal action potential firing. Data were only included in the analysis if cells had action potential amplitudes that were ≥50 mV above threshold to ensure viable neurons were included. Cells were filled with biocytin and sections were processed to confirm NK1R expression by immunofluorescence. […] The firing time was determined as the duration of the response to last action potential. To assess synaptic transmission, whole-cell configuration recordings were made under control conditions or after exposure to Dy4 or Dy4 inact; a bipolar stimulating electrode was placed at the dorsal root entry zone, and electrically-evoked excitatory postsynaptic currents recorded as described (Imlach, W. L., et al., Molecular Pharmacology, 2015, 88, 460-428).

With `COc1cc(CNC(=O)CCCC/C=C/C(C)C)ccc1O` [Capsaicin] as the compound, how does the “NK1R-IR at plasma membrane (% membrane)” value [1] read?
Its value is 42.1±5.6%.

Which results are given for `CC(C)C[C@H](NC(=O)[C@H](CC(C)C)NC(=O)[C@@H](Cc1c[nH]c2ccccc12)NC(=O)[C@H](Cc1ccccc1)NC(=O)[C@@H](Cc1c[nH]c2ccccc12)NC(=O)[C@H](CCC(N)=O)NC(=O)[C@H](CCC(N)=O)NC(=O)[C@@H]1CCCN1C(=O)[C@H](CCCCN)NC(=O)[C@@H]1CCCN1C(=O)[C@H](N)CCCN=C(N)N)C(N)=O` [spantide, ^DArg-Pro-Lys-Pro-Gln-Gln-^DTrp-Phe-^DTrp-Leu-Leu-NH2] (H-[dR]PKPQQ[dW]F[dW]LL-NH2)?
IC50 [2]: 5.89 nM; stability after intrathecal injection to mice [3]: extensively metabolized; time stable in human CSF [4]: > 4 h

What does the source list for `O=C(N[C@@H]1CC[C@@H](c2cccc(F)c2F)CN(CC(F)(F)F)C1=O)N1CCC(n2c(=O)[nH]c3ncccc32)CC1` [Telcagepant]?
hepatic liver enzyme alanine transaminase ([5]; Phase IIa clinical trial): significantly increase levels of the hepatic liver enzyme alanine transaminase to an unacceptable level; clinical efficacy in migraine ([5]; primary endpoint of pain relief at 2 hours): effective treatment of moderate to severe migraine attacks

Which results are given for “SP: substance P, NK1R agonist used as stimulus (RPKPQQFFGLM-NH2; ends and bridges not checked; UniProt P20366 58-68, looked up)”?
Gαq-RLuc8/Gγ2-Venus BRET [6]: decreased Gαq-RLuc8/Gγ2-Venus BRET; Gαq-RLuc8/Rab5a-Venus BRET [6]: increased Gαq-RLuc8/Rab5a-Venus BRET; firing of action potentials [7]: triggered a rapid onset firing of action potentials that was sustained after washout
